Assay results reported in US20050260582A1, “Cell proliferation inhibitors comprising ets transcription factor or gene encoding the same” (priority 2001, published 2005).

Legend:
A549 cell = test: Cell morphology and F-actin staining; type: cell-based, human
Description: In FIG. 4, A549 cell, MEF gene overexpressing […] cell and A549 cell treated with BB94 (10 μM) are shown respectively from the left side.
Moreover, it has been reported that metastasis from epithelium to mesenchyme is induced by lack of E-cadherin or activation of MMPs [Llorens et al., 1998], expression of MMPs and E-cadherin was next examined. The right side in FIG. 5 is a photograph in place of a drawing, showing results of analyzing an MMP-9 protein content of A549 cell and MEF gene overexpressing cell in a serum-free culture supernatant (conditioned media) by western blotting using anti-MMP-9 antibody, and the left side in FIG. 5 is a photograph in place of a drawing, showing results of gelatin-zymography of MMP-9. […] In order to examine the decrease in MMP-9 activity in MEF gene overexpressing cell, A549 cell was treated with BB94 as an MMP inhibitor. […] Generally, such a morphological change thereof indicates reduction of an invasion activity. Accordingly, for examining an invasive function of A549 cell and MEF gene overexpressing cell, matrigel invasion assay was performed. In an upper chamber of FIG. 6, 2.5×10^5 A549 cells (left side), MEF gene overexpressing cells (center) and A549 cells (right side) treated with BB94 were inoculated respectively, and the numbers of cells on the lower side which were passed through a 8-μm filter were counted. […]

A549 cells = test: Matrigel invasion assay; type: cell-based, human; details: cells passed through 8-μm filter after 24 hours; BB94-treated A549 as comparison
Description: Moreover, it has been reported that metastasis from epithelium to mesenchyme is induced by lack of E-cadherin or activation of MMPs [Llorens et al., 1998], expression of MMPs and E-cadherin was next examined. The right side in FIG. 5 is a photograph in place of a drawing, showing results of analyzing an MMP-9 protein content of A549 cell and MEF gene overexpressing cell in a serum-free culture supernatant (conditioned media) by western blotting using anti-MMP-9 antibody, and the left side in FIG. 5 is a photograph in place of a drawing, showing results of gelatin-zymography of MMP-9. […] In an upper chamber of FIG. 6, 2.5×10^5 A549 cells (left side), MEF gene overexpressing cells (center) and A549 cells (right side) treated with BB94 were inoculated respectively, and the numbers of cells on the lower side which were passed through a 8-μm filter were counted. […]
200 μl of each cell suspension prepared to a concentration of 1.0×10^6 cells/ml was added to an upper layer of a matrigel invasion chamber (BD Biocoat Matrigel) having 8-μm pores, and 700 μl of a serum-free culture solution was added thereto. After 24 hours, the cells invaded in the lower layer of the membrane filter were stained with hematoxylin, and the number of the cells was then counted under a microscope.

IL-8 promoter = test: Luciferase assay using IL-8 promoter; type: cell-based, human; details: 5-azacytidine (1 μM) and trichosamine A (1 μM)
Description: (§1) Accordingly, the present inventors further examined the function of MEF on transcription of MMP-9 and IL-8. For examining whether MEF directly suppresses transcription of MMP-9 and IL-8, the present inventors performed luciferase assay using MMP-9 and IL-8 promoters. […] In each case, the ordinate represents a relative luciferase activity, and the abscissa represents Basal, A549 cell, a case of adding 1.0 μM MEF, a case of adding 3.0 μM MEF, a case of adding 5.0 μM MEF and a case of adding MEF gene overexpressing cell (clone 71) from the left respectively. In A549 cell, a high luciferase activity of MMP-9 and IL-8 promoters was observed (FIG. 20). […] In each graph, the ordinate represents a relative luciferase activity, and the abscissa represents Basal, A549 cell, a case of adding Est-2 and a case of adding anti-Est-2 from the left respectively.
(§2) The finding of MMP-9 activation with ETS-2 is also backed up by the study on target deletion of Ets-2 using mice [Yamamoto, 1998]. Since MEF is, unlike PU-1, free from a repressor region [Kihara-Negishi, 2001] and interacts with HDAC or Sin3A having a deacetylase activity, the present inventors next assumed that MEF is a competitor with ETS-2 in ets binding sites of these promoters. […]

MEF expression = MEF expression by RT-PCR; type: cell-based, human
Description: Next, since methylcytosine is recognized with methylated DNA bound to protein MeCP2 interacting with HDAC [Ng et al, 1999], the present inventors examined the effect given by the combined use of 5-aza-2′-deoxycytidine (5-azacytidine) as a demethylation agent and tricostatin A as a histone deacylase inhibitor in MEF expression of A549 cell. The results are shown in photographs in place of drawings in FIG. 3. […] GAPDH is shown as a control. In FIG. 3, HEK293 cell, A549 cell and Caco-2 cell are shown from the left side in an upper panel, and A549 cell and Caco-2 cell from the left side in a lower panel. In FIG. 3, DMSO indicates dimethyl sulfoxide, 5-AC indicates 5-azacytidine and TSA indicates tricostatin A respectively. […] The low MEF expression in Hela cell is considered to be attributed to any other unknown mechanism. This is also backed up by the report that Hela cell lacking in known methylation-dependent inhibitor MeCP2 becomes a silence methylation gene using another route including MBD2 [Ng et al., 1999].
Isogene (Nippon Gene) was used in extraction of all RNAs from culture cells. For comparison of various gene expressions of culture cells, RT-PCR was conducted. RNA PCR kit (AMV) ver. 2.1 (TaKaRa) was used for RT-PCR. The methods by which the gene expression identified in the invention are outlined below.
A reverse transcription reaction (at 42° C. for 60 minutes, at 99° C. for 5 minutes, at 5° C. for 5 minutes) was performed using 1 μg of all RNAs extracted from A549 and other cells as templates and oligo dT primers. Thereafter, PCR (at 94° C. for 2 minutes—1 cycle; at 94° C. for 30 seconds, at 58° C. for 30 seconds, at 72° C. for 30 seconds—40 cycles) was performed using an upstream primer (5′-[…]-3,) and a downstream primer (5,-[…]-3′).

MMP-9 promoter = test: Luciferase assay using MMP-9 promoter; type: cell-based, human; details: 5-azacytidine (1 μM) and trichosamine A (1 μM)
Description: as §1, §2

[1] = test system: human umbilical vein endothelial cells (HUVECs); test: Migration of HUVECs toward serum-free culture supernatant; type: cell-based; details: 8-μm filter, 24 hours; A549 supernatant accelerated migration; bFGF positive control
Description: Successively, it was further examined whether MEF gene overexpression of A549 cells influences metastasis of vessel endothelial cells. […] Human umbilical vein endothelial cells (HUVECs) were inoculated in an upper chamber, and cells migrating in a medium of a lower chamber were observed through a 8-μm filter.
The results are shown in FIG. 17 by photographs in place of drawings. […] In FIG. 18, the ordinate represents a (%) migration activity relative to a non-treated case, and the abscissa represents a non-treated case, a case of bFGF, a case of A549 cell and a case of MEF gene overexpressing cell (clone 71) from the left side respectively.
[…] of a cell suspension containing HUVECs at a concentration of 2.5×10^5 cells/ml was added to an upper layer of a matrigel invasion chamber (BD Biocoat Matrigel) having 8-μm pores. Subsequently, 700 μl of a serum-free culture supernatant produced according to 1. of Example 10 was added to a lower layer. After 24 hours, HUVECs invaded into the lower layer of the membrane filter were stained with hematoxylin, and the number of cells was then counted under a microscope.

In the case of `CNC(=O)[C@H](Cc1ccccc1)NC(=O)[C@H](CC(C)C)[C@H](CSc1cccs1)C(=O)NO` [BB94], the F-actin localization (A549 cell; MEF gene overexpression or BB94 10 μM) is reported as “localization of F-actin in the interface between cells”, the morphological change (A549 cell; MEF gene overexpression, BB94 10 μM or 5-azacytidine 10 μm) is reported as “induced typical morphological change” and the invasion activity (A549 cells) is reported as “inhibitory effect”.
`CC(/C=C/C(=O)NO)=C\[C@@H](C)C(=O)c1ccc(N(C)C)cc1` [tricostatin A] was tested, and the IL-8 promoter activity (IL-8 promoter) was “inhibited”, the MEF expression (MEF expression; A549 cell, combined use of 5-azacytidine (1 μM) and tricostatin A (300 μM)) was “clearly increased the MEF expression” and the MEF expression (MEF expression; A549 cell, single use of the reagent) was “increased the MEF expression only slightly”. For the same molecule, the MEF expression (MEF expression; Caco-2 cell, 5-azacytidine and tricostatin A) was “same effect was observed”, the MEF expression (MEF expression; HEK293 cell, 5-azacytidine and tricostatin A) was “not in HEK293 and Hela cells” and the MEF expression (MEF expression; Hela cell, 5-azacytidine and tricostatin A) was “not in HEK293 and Hela cells”. For the same molecule, the MMP-9 promoter activity (MMP-9 promoter) was “inhibited”.
For “bFGF: basic FGF, positive control for HUVEC migration”, the “migration of HUVECs” value [1] was “increased migration of HUVECs”.
